How the values were obtained:
Test in all cases: relative viability (nuclei count vs DMSO), 5 days (fraction); higher = more cells survive
201T = tested on: 201T
Procedure, shortened: (§1)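 Each reported value is a median over duplicate plates. It expresses relative viability: treated-well nuclei count divided by vehicle-well nuclei count. Lung cancer cell lines in 1536-well plates were dosed by pin tool a day after seeding, alone with one drug or with a fixed anchor-drug dose plus five library-drug doses (not always all listed) in √10 steps, and nuclei were counted after 5 days.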

BEN = tested on: BEN
Procedure, shortened: as §1

EMC-BAC-2 = tested on: EMC-BAC-2
Procedure, shortened: as §1

HARA = tested on: HARA
Procedure, shortened: as §1

HCC-44 = tested on: HCC-44
Procedure, shortened: as §1

LCLC-103H = tested on: LCLC-103H
Procedure, shortened: as §1

LOU-NH91 = tested on: LOU-NH91
Procedure, shortened: as §1

NCI-H1395 = tested on: NCI-H1395
Procedure, shortened: as §1

NCI-H1993 = tested on: NCI-H1993
Procedure, shortened: as §1

NCI-H2023 = tested on: NCI-H2023
Procedure, shortened: as §1

NCI-H2087 = tested on: NCI-H2087
Procedure, shortened: as §1

NCI-H2126 = tested on: NCI-H2126
Procedure, shortened: as §1

NCI-H2347 = tested on: NCI-H2347
Procedure, shortened: as §1

NCI-H23 = tested on: NCI-H23
Procedure, shortened: as §1

NCI-H3122 = tested on: NCI-H3122
Procedure, shortened: as §1

NCI-H441 = tested on: NCI-H441
Procedure, shortened: as §1

NCI-H522 = tested on: NCI-H522
Procedure, shortened: as §1

NCI-H647 = tested on: NCI-H647
Procedure, shortened: as §1

NCI-H650 = tested on: NCI-H650
Procedure, shortened: as §1

NCI-H727 = tested on: NCI-H727
Procedure, shortened: as §1

NCI-H838 = tested on: NCI-H838
Procedure, shortened: as §1

`CCN(CC)CCCCNc1ncc2cc(-c3cc(OC)cc(OC)c3)c(NC(=O)NC(C)(C)C)nc2n1` + CC(=O)c1c(C)c2cnc(Nc3ccc(N4CCNCC4)cn3)nc2n(C2CCCC2)c1=O [Palbociclib] (partner 0.5 µM) showed a relative viability (201T; first compound 0.01 µM) of 0.395, a relative viability (201T; first compound 0.03162 µM) of 0.387 and a relative viability (201T; first compound 0.1 µM) of 0.406. It also gave a relative viability (201T; first compound 0.3162 µM) of 0.389, a relative viability (201T; first compound 1 µM) of 0.372 and a relative viability (BEN; first compound 0.01 µM) of 0.489. The relative viability (BEN; first compound 0.03162 µM) was 0.417, the relative viability (BEN; first compound 0.1 µM) was 0.493 and the relative viability (BEN; first compound 0.3162 µM) was 0.524. The relative viability (BEN; first compound 1 µM) was 0.475, the relative viability (EMC-BAC-2; first compound 0.03162 µM) was 0.501 and the relative viability (EMC-BAC-2; first compound 0.1 µM) was 0.525. For the same molecule, the relative viability (EMC-BAC-2; first compound 0.3162 µM) was 0.536, the relative viability (EMC-BAC-2; first compound 1 µM) was 0.527 and the relative viability (HARA; first compound 0.01 µM) was 0.228. It also gave a relative viability (HARA; first compound 0.03162 µM) of 0.243, a relative viability (HARA; first compound 0.1 µM) of 0.306 and a relative viability (HARA; first compound 0.3162 µM) of 0.223. The relative viability (HARA; first compound 1 µM) was 0.269, the relative viability (HCC-44; first compound 0.01 µM) was 1.02 and the relative viability (HCC-44; first compound 0.03162 µM) was 1.07. For the same molecule, the relative viability (HCC-44; first compound 0.1 µM) was 0.987, the relative viability (HCC-44; first compound 0.3162 µM) was 1.04 and the relative viability (HCC-44; first compound 1 µM) was 1. It also gave a relative viability (LCLC-103H; first compound 0.01 µM) of 0.473, a relative viability (LCLC-103H; first compound 0.03162 µM) of 0.423 and a relative viability (LCLC-103H; first compound 0.1 µM) of 0.457. It also gave a relative viability (LCLC-103H; first compound 0.3162 µM) of 0.48, a relative viability (LCLC-103H; first compound 1 µM) of 0.466 and a relative viability (LOU-NH91; first compound 0.01 µM) of 0.572. It also gave a relative viability (LOU-NH91; first compound 0.03162 µM) of 0.546, a relative viability (LOU-NH91; first compound 0.1 µM) of 0.557 and a relative viability (LOU-NH91; first compound 0.3162 µM) of 0.491. It also gave a relative viability (LOU-NH91; first compound 1 µM) of 0.412, a relative viability (NCI-H1395; first compound 0.01 µM) of 0.637 and a relative viability (NCI-H1395; first compound 0.03162 µM) of 0.59. It also gave a relative viability (NCI-H1395; first compound 0.1 µM) of 0.661, a relative viability (NCI-H1395; first compound 0.3162 µM) of 0.546 and a relative viability (NCI-H1395; first compound 1 µM) of 0.448. For the same molecule, the relative viability (NCI-H1993; first compound 0.01 µM) was 0.368, the relative viability (NCI-H1993; first compound 0.03162 µM) was 0.763 and the relative viability (NCI-H1993; first compound 0.1 µM) was 0.791. For the same molecule, the relative viability (NCI-H1993; first compound 0.3162 µM) was 0.661, the relative viability (NCI-H1993; first compound 1 µM) was 0.738 and the relative viability (NCI-H2023; first compound 0.01 µM) was 0.317. For the same molecule, the relative viability (NCI-H2023; first compound 0.03162 µM) was 0.32, the relative viability (NCI-H2023; first compound 0.1 µM) was 0.348 and the relative viability (NCI-H2023; first compound 0.3162 µM) was 0.347. For the same molecule, the relative viability (NCI-H2023; first compound 1 µM) was 0.291, the relative viability (NCI-H2087; first compound 0.01 µM) was 0.154 and the relative viability (NCI-H2087; first compound 0.03162 µM) was 0.219. The relative viability (NCI-H2087; first compound 0.1 µM) was 0.206, the relative viability (NCI-H2087; first compound 0.3162 µM) was 0.234 and the relative viability (NCI-H2087; first compound 1 µM) was 0.225. It also gave a relative viability (NCI-H2126; first compound 0.01 µM) of 0.353, a relative viability (NCI-H2126; first compound 0.03162 µM) of 0.37 and a relative viability (NCI-H2126; first compound 0.1 µM) of 0.399. The relative viability (NCI-H2126; first compound 0.3162 µM) was 0.345, the relative viability (NCI-H2126; first compound 1 µM) was 0.355 and the relative viability (NCI-H2347; first compound 0.01 µM) was 0.551. It also gave a relative viability (NCI-H2347; first compound 0.03162 µM) of 0.452, a relative viability (NCI-H2347; first compound 0.1 µM) of 0.415 and a relative viability (NCI-H2347; first compound 0.3162 µM) of 0.484. It also gave a relative viability (NCI-H2347; first compound 1 µM) of 0.387, a relative viability (NCI-H23; first compound 0.01 µM) of 0.534 and a relative viability (NCI-H23; first compound 0.03162 µM) of 0.451. It also gave a relative viability (NCI-H23; first compound 0.1 µM) of 0.598, a relative viability (NCI-H23; first compound 0.3162 µM) of 0.547 and a relative viability (NCI-H23; first compound 1 µM) of 0.466. It also gave a relative viability (NCI-H3122; first compound 0.01 µM) of 0.184, a relative viability (NCI-H3122; first compound 0.03162 µM) of 0.175 and a relative viability (NCI-H3122; first compound 0.1 µM) of 0.157. It also gave a relative viability (NCI-H3122; first compound 0.3162 µM) of 0.194, a relative viability (NCI-H3122; first compound 1 µM) of 0.179 and a relative viability (NCI-H441; first compound 0.01 µM) of 0.193. For the same molecule, the relative viability (NCI-H441; first compound 0.03162 µM) was 0.204, the relative viability (NCI-H441; first compound 0.1 µM) was 0.198 and the relative viability (NCI-H441; first compound 0.3162 µM) was 0.261. For the same molecule, the relative viability (NCI-H441; first compound 1 µM) was 0.193, the relative viability (NCI-H522; first compound 0.01 µM) was 1.04 and the relative viability (NCI-H522; first compound 0.03162 µM) was 1.01. It also gave a relative viability (NCI-H522; first compound 0.1 µM) of 0.921, a relative viability (NCI-H522; first compound 0.3162 µM) of 1.12 and a relative viability (NCI-H522; first compound 1 µM) of 0.935. For the same molecule, the relative viability (NCI-H647; first compound 0.01 µM) was 0.309, the relative viability (NCI-H647; first compound 0.03162 µM) was 0.42 and the relative viability (NCI-H647; first compound 0.1 µM) was 0.427. It also gave a relative viability (NCI-H647; first compound 0.3162 µM) of 0.497, a relative viability (NCI-H647; first compound 1 µM) of 0.394 and a relative viability (NCI-H650; first compound 0.01 µM) of 0.282. For the same molecule, the relative viability (NCI-H650; first compound 0.03162 µM) was 0.369, the relative viability (NCI-H650; first compound 0.1 µM) was 0.331 and the relative viability (NCI-H650; first compound 0.3162 µM) was 0.308. The relative viability (NCI-H650; first compound 1 µM) was 0.32, the relative viability (NCI-H727; first compound 0.01 µM) was 0.581 and the relative viability (NCI-H727; first compound 0.03162 µM) was 0.635. It also gave a relative viability (NCI-H727; first compound 0.1 µM) of 0.769, a relative viability (NCI-H727; first compound 0.3162 µM) of 0.697 and a relative viability (NCI-H727; first compound 1 µM) of 0.59. The relative viability (NCI-H838; first compound 0.01 µM) was 0.197, the relative viability (NCI-H838; first compound 0.03162 µM) was 0.223 and the relative viability (NCI-H838; first compound 0.1 µM) was 0.204. It also gave a relative viability (NCI-H838; first compound 0.3162 µM) of 0.213 and a relative viability (NCI-H838; first compound 1 µM) of 0.182.

— the supplement of paper PMC10307832
